Among the data in patent US20090163715A1, “Intermediate in Production of [2-(3,3,5,5-Tetramethylcyclohexyl)phenyl]Piperazine Compound” (EISAI R&D MANAGEMENT CO., LTD., priority 2005, published 2009) are IC50 values, retold here.

The test system of test [1] is human peripheral blood neutrophils. The experiment in a line: Human peripheral blood neutrophil adhesion system (PMA-stimulated adhesion to HUVEC immobilized plate). Format: cell-based. As to conditions: 0.75 h; BCECF-AM labeled human neutrophils on HUVEC immobilized plate, PMA stimulation, 37° C. for 45 minutes; read-out: IC50 (concentration which inhibited the increase in the number of adhered cells by the PMA-stimulation by 50%). The procedure: To a plastic centrifugation tube containing 100 units of heparin sodium (Shimizu Pharmaceutical) was added 25 mL of fresh blood sampled from a healthy human. After adding and mixing therewith 8 mL of physiological saline (Otsuka Pharmaceutical) containing 6% Dextran (Nacalai), the mixture was allowed to stand at room temperature for 45 minutes for sedimentation of the erythrocytes. The resultant supernatant was transferred to another plastic centrifugation tube and combined with an equivalent volume of PBS, and then centrifuged at 1600 rpm for 7 minutes at room temperature. The obtained hematocyte fraction was suspended in 4 mL of PBS, and the suspension was superposed on 4 mL of Ficoll-Paque™ PLUS (Amersham Biosciences). […]
To 6.5 mL of RPMI-1640 medium (Sigma) containing 1 mg/mL of BSA were added 0.5 mL of a suspension of BCECF-AM labeled neutrophils at 5×10^7 cells/mL stored in ice, which was mixed, and the mixture was added at 80 μL/well to a HUVEC immobilized plate. […] The supernatant was removed from the plate, which was then washed several times with RPMI-1640 at 100 μL/well, and then PBS containing 0.1% NP-40 (Calbiochem) was added thereto at 100 μL/well and the fluorescent intensity was measured with an ARVO™SX 1420 multi label counter (Wallac) to determine the number of adhered cells.

Test [2] relates to Jurkat cells. As to the kind of experiment: Jurkat cell adhesion system (PMA-stimulated adhesion to immobilized human fibronectin). Format: cell-based. As to conditions: Jurkat cells on human fibronectin-coated 96-well plate, PMA stimulation, 37° C. for 45-60 minutes; read-out: IC50 (concentration which inhibited the increase in the number of adhered cells by the PMA-stimulation by 50%). How it is done:
Human fibronectin (Becton Dickinson Biosciences) was diluted with phosphate-buffered saline (hereinafter abbreviated as PBS; Sigma) to 0.1-0.01 μg/mL, and the diluted solution was added to a 96-well plate (Becton Dickinson) at 50 μL/well, and allowed to stand overnight at 4° C. On the following day, the supernatant was removed from the plate, and then PBS containing 1% bovine serum albumin (hereinafter abbreviated as BSA; Sigma) was added thereto at 100 μL/well and incubation was performed at 37° C. for 2 hours in a CO2 incubator (Hirasawa).
The supernatant was removed from each plate and Jurkat cells suspended in RPMI-1640 (Sigma) containing 1 mg/mL BSA were added at 80 μL/well for 2.5×10^5 cells/well. The compound (B) diluted to different concentrations with RPMI-1640 containing […] BSA was immediately added at 10 μL/well, and then 100 nM phorbol myristate acetate (hereinafter abbreviated as PMA; Sigma) in RPMI-1640 containing 1 mg/mL BSA was added at 10 μL/well and the plate was incubated in a CO2 incubator at 37° C. for 45-60 minutes. […] After incubation, 50 mM glycine buffer (pH 10.4) containing 5 mM EDTA was added at 90 μL/well, and the absorbance at 405 nm was measured with an EL340 Automated Microplate Reader (BIO-TEK) to determine the adhered cell count.

`CC1(C)CC(c2ccccc2N2CCN(CC3CC3)CC2)CC(C)(C)C1` [compound (B), 1-Cyclopropylmethyl-4-[2-(3,3,5,5-tetramethylcyclohexyl)phenyl]piperazine methanesulfonate]: the figures for the IC50 in test [1] and in test [2] were 7.1 µM and 4.7 µM, respectively.
